From ChEMBL document CHEMBL5465560, “Selectivity Literature for EUbOPEN Chemogenomic Library” (2024)

Legend:
[1] = molecular target: Calcium/calmodulin-dependent protein kinase type 1 (Homo sapiens) (UniProt Q14012); assay: Selectivity interaction (KinomeScan (DiscoverX)) EUB0001049a CAMK1; conditions: at 1 µM
[2] = molecular target: Progesterone receptor (Homo sapiens) (UniProt P06401); assay: Selectivity interaction (Eurofins CEREP Diversity Profile (receptors and ion channels)) EUB0000279b PGR; conditions: at 10 µM
[3] = molecular target: Dual specificity protein kinase CLK1 (Homo sapiens, UniProt P49759); assay: Selectivity interaction (Enzymatic assay) EUB0001550a CLK1
[4] = molecular target: Serine-protein kinase ATM (Homo sapiens) (UniProt Q13315); assay: Selectivity interaction (ActivX KiNativ screen (kinase selectivity in THP-1 cell lysates)) EUB0000639a ATM; assay type: subcellular; conditions: lysate
Aurora kinase B = Aurora kinase B (Homo sapiens, UniProt Q96GD4); assay: Selectivity interaction (KinomeScan (DiscoverX)) EUB0000092b AURKB; conditions: at 10 µM
[5] = molecular target: Tyrosine-protein kinase Yes (Homo sapiens) (UniProt P07947); assay: Selectivity interaction (KinomeScan (DiscoverX)) EUB0000092b YES1; conditions: at 10 µM
[6] = molecular target: Mitogen-activated protein kinase kinase kinase 20 (Homo sapiens) (UniProt Q9NYL2); conditions: at 10 µM
[7] = molecular target: Serine/threonine-protein kinase PLK2 (Homo sapiens, UniProt Q9NYY3); assay: Selectivity interaction (KinomeScan (DiscoverX)) EUB0001619a PLK2; conditions: at 1 µM
[8] = molecular target: Protein kinase C delta type (Homo sapiens) (UniProt Q05655); assay: Selectivity interaction (KinomeScan (DiscoverX)) EUB0001619a PRKCD; conditions: at 1 µM
[9] = molecular target: T1, Serine/threonine-protein kinase BRSK2 (Homo sapiens) (UniProt Q8IWQ3); assay: Selectivity interaction (KinomeScan (DiscoverX)) EUB0000655a BRSK2; conditions: at 10 µM
T1 sequence (whole entry): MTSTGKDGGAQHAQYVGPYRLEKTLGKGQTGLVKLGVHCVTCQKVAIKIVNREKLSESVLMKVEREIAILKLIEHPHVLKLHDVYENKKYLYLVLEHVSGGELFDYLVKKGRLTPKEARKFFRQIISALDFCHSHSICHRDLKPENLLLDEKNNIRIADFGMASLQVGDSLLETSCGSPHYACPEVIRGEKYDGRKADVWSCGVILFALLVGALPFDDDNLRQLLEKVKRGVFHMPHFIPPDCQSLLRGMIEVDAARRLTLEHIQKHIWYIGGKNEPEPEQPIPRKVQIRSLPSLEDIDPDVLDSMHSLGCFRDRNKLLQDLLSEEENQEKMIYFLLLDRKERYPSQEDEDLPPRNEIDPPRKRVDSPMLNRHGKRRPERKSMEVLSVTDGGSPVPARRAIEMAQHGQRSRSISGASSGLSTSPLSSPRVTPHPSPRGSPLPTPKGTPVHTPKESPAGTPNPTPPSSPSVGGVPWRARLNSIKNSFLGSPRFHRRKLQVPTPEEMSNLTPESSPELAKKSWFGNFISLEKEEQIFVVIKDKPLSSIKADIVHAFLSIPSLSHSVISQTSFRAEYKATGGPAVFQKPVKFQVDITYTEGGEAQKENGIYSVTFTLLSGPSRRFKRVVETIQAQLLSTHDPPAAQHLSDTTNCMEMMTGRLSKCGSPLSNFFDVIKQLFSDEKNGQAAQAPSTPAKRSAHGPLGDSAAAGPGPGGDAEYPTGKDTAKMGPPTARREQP

[10] = molecular target: Cyclin-dependent kinase 11B (Homo sapiens) (UniProt P21127); assay: Selectivity interaction (KinomeScan (DiscoverX)) EUB0000655a CDK11B; conditions: at 10 µM
[11] = molecular target: Tyrosine-protein kinase ABL2 (Homo sapiens, UniProt P42684); assay: Selectivity interaction (KinomeScan (DiscoverX)) EUB0000607a ABL2; conditions: at 10 µM
[12] = molecular target: T2, Tyrosine-protein kinase Mer (Homo sapiens) (UniProt Q12866); assay: Selectivity interaction (KinomeScan (DiscoverX)) EUB0000607a MERTK; conditions: at 10 µM
T2 sequence (whole entry): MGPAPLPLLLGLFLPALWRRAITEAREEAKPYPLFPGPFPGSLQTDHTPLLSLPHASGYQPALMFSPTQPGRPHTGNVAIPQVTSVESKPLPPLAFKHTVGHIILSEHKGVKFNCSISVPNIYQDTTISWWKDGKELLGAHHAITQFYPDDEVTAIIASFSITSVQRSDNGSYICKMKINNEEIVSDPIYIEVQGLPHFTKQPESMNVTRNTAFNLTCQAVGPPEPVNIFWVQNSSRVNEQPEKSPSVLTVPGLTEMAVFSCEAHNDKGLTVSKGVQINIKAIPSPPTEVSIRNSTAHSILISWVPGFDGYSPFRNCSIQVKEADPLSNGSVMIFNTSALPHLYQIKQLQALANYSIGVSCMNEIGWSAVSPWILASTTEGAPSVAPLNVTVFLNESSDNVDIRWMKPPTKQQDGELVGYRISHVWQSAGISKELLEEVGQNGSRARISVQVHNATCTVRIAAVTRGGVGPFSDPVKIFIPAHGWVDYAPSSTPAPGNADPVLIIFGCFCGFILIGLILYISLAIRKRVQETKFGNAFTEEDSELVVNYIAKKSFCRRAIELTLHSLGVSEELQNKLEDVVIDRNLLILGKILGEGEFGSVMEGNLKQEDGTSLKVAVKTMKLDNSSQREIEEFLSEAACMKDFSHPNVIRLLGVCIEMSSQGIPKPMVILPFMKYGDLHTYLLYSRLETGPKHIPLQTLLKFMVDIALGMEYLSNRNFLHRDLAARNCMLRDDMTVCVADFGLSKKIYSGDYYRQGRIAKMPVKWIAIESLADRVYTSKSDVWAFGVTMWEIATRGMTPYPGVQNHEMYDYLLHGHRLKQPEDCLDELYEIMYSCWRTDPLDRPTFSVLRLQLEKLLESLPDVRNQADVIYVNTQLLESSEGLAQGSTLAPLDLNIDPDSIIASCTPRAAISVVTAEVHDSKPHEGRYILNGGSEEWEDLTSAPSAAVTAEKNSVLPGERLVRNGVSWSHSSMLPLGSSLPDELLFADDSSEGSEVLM

[13] = molecular target: Platelet-derived growth factor receptor beta (Homo sapiens, UniProt P09619); assay: Selectivity interaction (Kinase panel (Carna Biosciences)) EUB0001542aTs PDGFRB; conditions: at 1 µM

Serine-protein kinase ATM (Homo sapiens), sequence (Q13315 whole entry): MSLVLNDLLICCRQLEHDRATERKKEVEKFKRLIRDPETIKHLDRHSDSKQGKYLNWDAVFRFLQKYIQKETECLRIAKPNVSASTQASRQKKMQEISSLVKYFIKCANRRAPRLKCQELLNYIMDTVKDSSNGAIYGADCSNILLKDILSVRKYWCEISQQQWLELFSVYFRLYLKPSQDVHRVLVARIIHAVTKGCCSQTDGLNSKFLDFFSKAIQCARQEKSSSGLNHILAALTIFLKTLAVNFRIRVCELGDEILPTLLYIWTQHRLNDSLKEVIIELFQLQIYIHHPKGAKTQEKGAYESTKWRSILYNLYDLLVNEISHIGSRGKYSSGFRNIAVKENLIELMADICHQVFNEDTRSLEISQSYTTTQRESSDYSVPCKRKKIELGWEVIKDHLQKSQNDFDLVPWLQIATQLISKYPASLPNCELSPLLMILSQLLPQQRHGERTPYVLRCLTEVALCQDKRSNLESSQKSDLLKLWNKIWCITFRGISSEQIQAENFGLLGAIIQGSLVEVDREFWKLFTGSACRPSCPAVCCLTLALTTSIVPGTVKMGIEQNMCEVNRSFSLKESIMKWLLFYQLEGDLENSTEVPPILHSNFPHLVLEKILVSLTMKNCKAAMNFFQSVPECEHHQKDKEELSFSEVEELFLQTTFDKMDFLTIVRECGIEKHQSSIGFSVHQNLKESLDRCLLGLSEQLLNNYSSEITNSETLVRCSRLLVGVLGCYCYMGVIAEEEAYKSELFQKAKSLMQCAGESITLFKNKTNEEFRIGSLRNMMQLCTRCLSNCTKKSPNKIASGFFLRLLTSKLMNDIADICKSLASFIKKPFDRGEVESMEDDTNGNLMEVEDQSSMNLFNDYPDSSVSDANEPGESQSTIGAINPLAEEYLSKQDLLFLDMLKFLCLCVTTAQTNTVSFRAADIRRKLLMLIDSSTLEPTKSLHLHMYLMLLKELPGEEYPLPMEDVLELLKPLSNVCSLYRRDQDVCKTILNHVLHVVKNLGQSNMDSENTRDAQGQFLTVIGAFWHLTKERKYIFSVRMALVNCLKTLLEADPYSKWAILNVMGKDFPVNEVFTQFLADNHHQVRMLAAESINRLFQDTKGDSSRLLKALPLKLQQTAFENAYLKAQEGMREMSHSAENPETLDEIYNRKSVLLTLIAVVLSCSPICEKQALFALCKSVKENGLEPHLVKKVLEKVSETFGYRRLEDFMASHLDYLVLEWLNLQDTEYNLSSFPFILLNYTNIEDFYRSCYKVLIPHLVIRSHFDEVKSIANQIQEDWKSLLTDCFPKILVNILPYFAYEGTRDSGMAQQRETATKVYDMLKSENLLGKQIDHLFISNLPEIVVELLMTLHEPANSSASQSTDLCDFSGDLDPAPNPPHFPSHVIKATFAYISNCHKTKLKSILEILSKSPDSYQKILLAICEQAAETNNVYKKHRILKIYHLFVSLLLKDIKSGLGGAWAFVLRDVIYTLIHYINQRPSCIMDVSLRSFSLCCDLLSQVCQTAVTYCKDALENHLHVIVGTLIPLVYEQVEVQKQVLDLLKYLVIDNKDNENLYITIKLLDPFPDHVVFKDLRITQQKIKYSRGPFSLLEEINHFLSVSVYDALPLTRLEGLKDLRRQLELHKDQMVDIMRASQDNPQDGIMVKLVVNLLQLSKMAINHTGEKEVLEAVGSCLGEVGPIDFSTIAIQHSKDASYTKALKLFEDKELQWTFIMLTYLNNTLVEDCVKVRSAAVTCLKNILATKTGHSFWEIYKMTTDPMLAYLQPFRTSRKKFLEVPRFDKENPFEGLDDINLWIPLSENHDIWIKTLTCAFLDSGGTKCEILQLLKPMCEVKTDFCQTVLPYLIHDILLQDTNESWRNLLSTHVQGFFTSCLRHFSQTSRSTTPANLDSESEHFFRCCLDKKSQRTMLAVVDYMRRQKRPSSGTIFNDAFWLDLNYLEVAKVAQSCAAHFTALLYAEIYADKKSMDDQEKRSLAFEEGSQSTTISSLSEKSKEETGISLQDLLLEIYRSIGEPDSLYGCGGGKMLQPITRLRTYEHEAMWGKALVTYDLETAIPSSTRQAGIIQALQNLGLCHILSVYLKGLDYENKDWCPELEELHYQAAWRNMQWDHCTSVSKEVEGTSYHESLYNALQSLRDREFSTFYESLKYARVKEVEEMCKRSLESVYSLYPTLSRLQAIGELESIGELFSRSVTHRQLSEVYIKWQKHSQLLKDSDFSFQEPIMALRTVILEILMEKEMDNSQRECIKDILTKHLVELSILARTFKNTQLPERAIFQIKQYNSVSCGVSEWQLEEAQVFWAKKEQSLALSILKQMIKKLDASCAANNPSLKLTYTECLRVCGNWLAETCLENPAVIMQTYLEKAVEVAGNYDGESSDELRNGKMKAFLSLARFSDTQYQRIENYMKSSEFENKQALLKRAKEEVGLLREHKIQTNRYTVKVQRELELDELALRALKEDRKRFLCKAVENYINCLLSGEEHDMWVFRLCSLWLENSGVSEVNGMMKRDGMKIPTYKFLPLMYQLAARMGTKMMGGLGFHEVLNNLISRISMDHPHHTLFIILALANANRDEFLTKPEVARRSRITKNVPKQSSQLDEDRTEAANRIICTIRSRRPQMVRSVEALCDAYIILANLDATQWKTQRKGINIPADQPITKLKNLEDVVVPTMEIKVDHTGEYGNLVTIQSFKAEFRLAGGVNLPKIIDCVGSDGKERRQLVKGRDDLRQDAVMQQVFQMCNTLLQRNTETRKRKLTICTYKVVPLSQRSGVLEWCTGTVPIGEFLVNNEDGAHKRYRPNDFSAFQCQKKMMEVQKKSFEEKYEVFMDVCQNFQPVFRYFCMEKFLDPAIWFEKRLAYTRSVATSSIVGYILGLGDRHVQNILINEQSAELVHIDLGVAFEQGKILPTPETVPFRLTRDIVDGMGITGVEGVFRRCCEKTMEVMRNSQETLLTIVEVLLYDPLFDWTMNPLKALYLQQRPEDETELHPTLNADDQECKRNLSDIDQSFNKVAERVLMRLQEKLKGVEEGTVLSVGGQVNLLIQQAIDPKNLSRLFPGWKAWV
Calcium/calmodulin-dependent protein kinase type 1 (Homo sapiens), sequence (Q14012 whole entry, looked up): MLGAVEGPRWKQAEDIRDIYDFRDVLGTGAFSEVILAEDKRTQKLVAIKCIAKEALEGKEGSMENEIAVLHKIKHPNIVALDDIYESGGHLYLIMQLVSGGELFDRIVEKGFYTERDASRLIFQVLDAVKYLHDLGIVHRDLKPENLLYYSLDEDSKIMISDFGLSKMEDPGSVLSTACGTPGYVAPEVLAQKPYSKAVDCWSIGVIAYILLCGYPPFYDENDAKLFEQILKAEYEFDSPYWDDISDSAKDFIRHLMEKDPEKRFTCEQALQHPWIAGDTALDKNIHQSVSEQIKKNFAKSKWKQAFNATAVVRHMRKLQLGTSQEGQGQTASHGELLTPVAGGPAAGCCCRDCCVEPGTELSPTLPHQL
Protein kinase C delta type (Homo sapiens), sequence (Q05655 whole entry, looked up): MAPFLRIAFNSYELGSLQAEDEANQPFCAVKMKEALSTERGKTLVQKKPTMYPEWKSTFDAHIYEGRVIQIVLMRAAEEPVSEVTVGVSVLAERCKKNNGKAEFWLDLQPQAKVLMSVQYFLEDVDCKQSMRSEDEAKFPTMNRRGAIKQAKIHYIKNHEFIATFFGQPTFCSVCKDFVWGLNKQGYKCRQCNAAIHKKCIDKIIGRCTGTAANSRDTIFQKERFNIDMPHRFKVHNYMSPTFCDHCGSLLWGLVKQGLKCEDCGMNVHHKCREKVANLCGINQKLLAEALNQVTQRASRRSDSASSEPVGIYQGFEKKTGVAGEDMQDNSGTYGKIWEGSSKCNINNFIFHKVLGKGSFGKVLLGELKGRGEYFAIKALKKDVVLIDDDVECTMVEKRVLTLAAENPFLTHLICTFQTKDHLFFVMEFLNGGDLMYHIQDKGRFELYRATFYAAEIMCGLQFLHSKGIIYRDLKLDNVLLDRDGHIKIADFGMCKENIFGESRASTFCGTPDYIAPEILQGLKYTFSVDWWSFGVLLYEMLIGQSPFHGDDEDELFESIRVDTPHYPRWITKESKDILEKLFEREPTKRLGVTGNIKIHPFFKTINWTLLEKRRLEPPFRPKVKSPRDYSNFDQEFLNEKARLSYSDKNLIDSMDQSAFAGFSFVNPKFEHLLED
Cyclin-dependent kinase 11B (Homo sapiens), sequence (P21127 whole entry): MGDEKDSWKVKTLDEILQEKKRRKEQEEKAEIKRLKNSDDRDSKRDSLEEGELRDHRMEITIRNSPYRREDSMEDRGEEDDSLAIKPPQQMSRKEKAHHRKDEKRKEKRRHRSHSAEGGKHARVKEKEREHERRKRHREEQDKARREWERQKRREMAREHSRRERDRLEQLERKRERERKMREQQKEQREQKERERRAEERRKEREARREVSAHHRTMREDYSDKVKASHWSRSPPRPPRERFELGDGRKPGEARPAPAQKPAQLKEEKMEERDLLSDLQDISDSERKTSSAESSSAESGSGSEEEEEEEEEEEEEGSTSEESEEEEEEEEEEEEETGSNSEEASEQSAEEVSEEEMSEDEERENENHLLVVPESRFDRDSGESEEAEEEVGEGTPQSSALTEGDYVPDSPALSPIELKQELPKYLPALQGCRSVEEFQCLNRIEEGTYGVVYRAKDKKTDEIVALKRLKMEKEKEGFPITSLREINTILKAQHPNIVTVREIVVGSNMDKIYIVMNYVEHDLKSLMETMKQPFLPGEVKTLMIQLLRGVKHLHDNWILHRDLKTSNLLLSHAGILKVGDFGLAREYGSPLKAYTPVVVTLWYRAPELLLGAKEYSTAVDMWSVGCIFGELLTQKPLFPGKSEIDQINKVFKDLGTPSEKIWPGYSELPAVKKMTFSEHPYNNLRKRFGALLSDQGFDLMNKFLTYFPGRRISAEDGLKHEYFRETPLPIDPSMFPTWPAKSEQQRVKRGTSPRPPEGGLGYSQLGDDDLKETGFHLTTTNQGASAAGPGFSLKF

COc1cc(Nc2nc(C)cc(-c3cnn4nc(OC)ccc34)n2)cc(C(F)(F)F)c1
% of control [1]: 75%

CC(=O)c1cc(-c2ccccc2OCC2CC2)c2ncccn12
% of control [2]: 81%

CN(C)CC#Cc1ccc2[nH]c3c(c2c1)-c1nc(N)ncc1CCC3
IC50 [3]: 420 nM

CC[C@@H]1[C@H](F)C(=O)N[C@@H]1COc1nccc2cc(C(N)=O)c(OC)cc12 [ZIMLOVISERTIB]
% of inhibition ([4]; at 0.01 µM): 12.7%
% of inhibition ([4]; at 0.04 µM): -2.1%
% of inhibition ([4]; at 0.2 µM): -2.2%
% of inhibition ([4]; at 1 µM): -15.7%
% of inhibition ([4]; at 5 µM): 24%

CCC(=O)N1CCN(c2ccc(-n3c(=O)ccc4cnc5ccc(-c6cnc7ccccc7c6)cc5c43)cc2C(F)(F)F)CC1
% of control (Aurora kinase B): 82%
% of control [5]: 74%

Cc1cc([C@@H](C)Nc2ccccc2C(=O)O)c2nc(N3CCOCC3)cc(=O)n2c1 [AZD-6482]
% of control [6]: 100%

N#Cc1cccc(-c2c[nH]c3ncnc(N4CCOCC4)c23)c1
% of control [7]: 100%
% of control [8]: 67%

CN(C)CCOc1ccc(-c2nc(-c3ccncc3)c(-c3ccc4c(c3)CC/C4=N\O)[nH]2)cc1
% of control [9]: 88%
% of control [10]: 100%

CNC(=O)Nc1ccc(-c2nc(N3CC4CCC(C3)O4)c3cnn(C4CCC5(CC4)OCCO5)c3n2)cc1
% of control [11]: 84%
% of control [12]: 87%

Cn1cc(Nc2nccc(N3CC4CCC(C3)N4C(=O)[C@@H]3CC3(F)F)n2)cn1
% of inhibition [13]: 66%
